Where a name gives a salt, the structure may show the parent alone.
Experiments:
[1] = test system: coronary blood flow; experiment: coronary blood flow increasing action, measured in rabbits by the Langendorff method; parameters: species or system rabbit
Description: The above-mentioned prior known derivatives of piperazine, however, have defects in that they are either too weak in the coronary blood flow increasing action [ED50 (mg)-the dose which can increase the coronary blood flow by 50%] or too strong in toxicity to be put to practical use as remedies for humans. Indeed, only one compound, trimetazidine dihydrochloride, [1-(2,3,4-trimethoxybenzyl)piperazine dihydrochloride)], is now being manufactured as a remedy for humans.
(§1) To illustrate one of the pharmacological effects of these compounds comparative experiments were carried out on the coronary blood flow increasing action, which was measured in rabbits by the Langendorff method, and on acute toxicity using the said trimetazidine as control, with the results being shown in Table 1. The Langendorff method was carried out according to the method described in Folia Pharmacologica Japonica, vol. 56, p. 1387 (1960), and the acute toxicity was measured by injection into the peritoneal cavities of mice.

[2] = acute toxicity by injection into the peritoneal cavities of mice; details: in vivo
Protocol: as §1

Which results are given for `COc1ccc(CN2CCN(CCC(c3ccccc3)c3ccccc3)CC2)c(OC)c1OC` [1-(3,3-diphenylpropyl)-4-(2,3,4-trimethoxybenzyl)-piperazinedihydrochloride]?
ED50 (coronary blood flow increasing action; dose which can increase the coronary blood flow by 50%) [1]: 0.02 mg; LD50 ([2]; mouse, ip): 100 mg/kg

Which results are given for `COc1cc(CN2CCN(CCC(c3ccccc3)c3ccccc3)CC2)cc(OC)c1OC.Cl.Cl` [1-(3,3-diphenylpropyl)-4-(3,4,5-trimethoxybenzyl)piperazine dihydrochloride]?
ED50 (coronary blood flow increasing action; dose which can increase the coronary blood flow by 50%) [1]: 0.06 mg; LD50 ([2]; ip mouse): 89 mg/kg

What does the source list for `COc1ccc(CN2CCN(CCC(c3ccccc3)c3ccccc3)CC2)cc1OC.Cl.Cl` [1-(3,3-diphenylpropyl)-4-(3,4-dimethoxybenzyl)piperazine dihydrochloride]?
ED50 (coronary blood flow increasing action; dose which can increase the coronary blood flow by 50%) [1]: 0.05 mg; LD50 ([2]; ip mouse): 66 mg/kg

Which “ED50 (coronary blood flow increasing action; dose which can increase the coronary blood flow by 50%)” value [1] does the source give for `Cl.Cl.c1ccc(CN2CCN(CCC(c3ccccc3)c3ccccc3)CC2)cc1` [1-(3,3-diphenylpropyl)-4-benzylpiperazine dihydrochloride] here?
Its value is 0.08 mg.

What about the LD50 ([2]; ip mouse) of the same molecule?
Its LD50 is 101 mg/kg.

For `COc1ccc(CN2CCNCC2)c(OC)c1OC.Cl.Cl` [Trimetazidine, 1-(2,3,4-trimethoxybenzyl)piperazine dihydrochloride, reference compound], which “ED50 (coronary blood flow increasing action; dose which can increase the coronary blood flow by 50%)” value [1] is on record?
Its value is 0.80 mg.

And the LD50 ([2]; ip mouse)?
Its LD50 is 390 mg/kg.

From patent publication US3957790A, “N-(3,3-diphenylpropyl)-n'-aralkyl-substituted piperazines” (Tokyo Tanabe Company, Ltd., priority 1974, dated 1976)
